# Source: US20260240844A1, “INHIBITORS OF CHD1L AND USES THEREOF” (The Regents of the University of Colorado, a body corporate, priority 2023, published 2026)
# Read-outs that look alike come from different tables or passages of the source.
# Legend:
# SW620 Parental cells = assay: SW620 Parental cell viability, combination with chemotherapy; assay type: cell-based; conditions: Homo sapiens, SW-620, SW620 cells, read-out: IC50 5-FU
# full length CHD1L = target: T1, full length CHD1L (Homo sapiens, UniProt Q86WJ1); assay: Nucleosome remodeling FRET assay; assay type: biochemical; conditions: full length-CHD1L pre-incubated with 10 μM for 10 minutes
# T1 construct: host or cells: Rosetta 2 (DE3) pLysS cells (E. coli) for CHD1L
# T1 sequence (Q86WJ1 16-879): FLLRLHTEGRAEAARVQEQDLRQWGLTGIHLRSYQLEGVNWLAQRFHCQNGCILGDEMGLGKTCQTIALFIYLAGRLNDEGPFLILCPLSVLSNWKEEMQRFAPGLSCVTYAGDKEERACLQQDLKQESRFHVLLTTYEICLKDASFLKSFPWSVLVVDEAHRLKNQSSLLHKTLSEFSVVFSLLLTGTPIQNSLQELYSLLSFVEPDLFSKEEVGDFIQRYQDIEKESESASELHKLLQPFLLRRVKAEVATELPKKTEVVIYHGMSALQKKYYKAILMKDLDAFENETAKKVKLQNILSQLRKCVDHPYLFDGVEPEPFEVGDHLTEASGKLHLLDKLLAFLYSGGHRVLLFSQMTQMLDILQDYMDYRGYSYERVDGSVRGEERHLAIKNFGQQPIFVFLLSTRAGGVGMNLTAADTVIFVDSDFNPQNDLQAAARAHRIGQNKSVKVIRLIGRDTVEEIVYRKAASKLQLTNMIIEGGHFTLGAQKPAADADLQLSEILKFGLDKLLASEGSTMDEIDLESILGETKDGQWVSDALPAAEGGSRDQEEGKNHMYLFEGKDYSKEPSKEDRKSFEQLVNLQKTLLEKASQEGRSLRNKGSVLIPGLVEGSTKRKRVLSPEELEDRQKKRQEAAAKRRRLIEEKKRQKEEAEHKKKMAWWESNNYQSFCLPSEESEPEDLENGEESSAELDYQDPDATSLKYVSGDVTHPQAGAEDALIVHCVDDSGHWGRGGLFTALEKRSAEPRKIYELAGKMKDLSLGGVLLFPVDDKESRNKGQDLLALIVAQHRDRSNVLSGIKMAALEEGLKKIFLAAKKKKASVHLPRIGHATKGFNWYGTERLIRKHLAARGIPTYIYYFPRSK
# From the text: For that, mononucleosomes composed of a human histone octamer containing a Cy5-tagged H2A, wrapped by a Cy3-labelled DNA template (EpiCypher, Cat #16-4201) were used. […] Right after the addition of ATP the assay was monitored overtime using Cy3 excitation (531 nm) and simultaneous detection of Cy3 (595 nm) and Cy5 (685 nm) emission signals using an EnVision plate reader (PerkinElmer). Data are expressed as the ratio of Cy3/Cy5 signal overtime.
# Inhibition of nucleosome remodeling by CHD1L inhibitors blocks DDR signaling. CHD1L's main role is chromatin remodeling and DNA relaxation, moving from a tightly condensed DNA to an accessible state allowing for DNA transcription and repair. Thus, the effect of CHD1L ATPase inhibition on its nucleosome remodeling activity using a FRET-based assay was used. The FRET assay measures the distancing of Cy3 on DNA and Cy5 on the H2A histone upon nucleosome sliding.
# Toxicity in mice = assay type: in vivo
# From the text: Organs and blood were harvested and sent to the Colorado State University Flint Animal Cancer Center for histopathological analysis by an independent certified veterinary pathologist with expertise in cancer chemotherapy.
# [1] = test system: SUM149 and MDA-MB-231 cells; assay: DDR biomarkers in breast cancer cells; assay type: cell-based; conditions: 4 μM
# From the text: Etoposide was used as a control to show upregulation of DDR pathway biomarkers.
# [2] = test system: γ-H2AX in SW620 or SUM149PT cells; assay: DNA damage (γ-H2AX) immunofluorescence, Example 1; assay type: cell-based
# From the text: The percentage of DNA damage for each single agent dose and combination was plotted on a contour map (FIG. 6A). Each shade on the contour map represents a range of % DNA damage where dark orange is 100% and white is 0% DNA damage.
# [3] = test system: SW620 cells and HCT116 cells; assay: CHD1L-mediated TCF-transcription and CSC stemness (clonogenic colonies)
# HCT116 tumor organoids = assay: Viability of isolated EMT phenotype HCT116 tumor organoids; assay type: cell-based; conditions: Homo sapiens, HCT-116, 72 h
structure (smiles),measurement,setting,value
"O=c1[nH]cc(F)c(=O)[nH]1 [Compound 5-FU, 5-fluorouracil]",IC50,SW620 Parental cells; Compound 11 0 μM,20.8 µM
same,IC50,SW620 Parental cells; Compound 11 2 μM,59.5 µM
same,IC50,SW620 Parental cells; Compound 11 2.25 μM,54.4 µM
same,IC50,SW620 Parental cells; Compound 11 2.5 μM,47.7 µM
same,IC50,SW620 Parental cells; Compound 12 2 μM,41.4 µM
same,IC50,SW620 Parental cells; Compound 12 2.25 μM,23.9 µM
same,IC50,SW620 Parental cells; Compound 12 2.5 μM,15.4 µM
"Cc1cc(Nc2ccc(NC(=O)Cc3cccs3)cc2)nc(N2CCCC2)n1 [Compound 6, N-(4-((6-methyl-2-(pyrrolidin-1-yl)pyrimidin-4-yl)amino)phenyl)-2-(thiophen-2-yl)acetamide]",nucleosome remodeling rate,full length CHD1L,reduction of the remodeling rate
"Cc1cc(Nc2ccc(NC(=O)Cc3cc(Br)cs3)cc2)nc(N2CCCC2)n1 [Compound 6.11, 2-(4-bromothiophen-2-yl)-N-(4-((6-methyl-2-(pyrrolidin-1-yl)pyrimidin-4-yl)amino)phenyl)acetamide]","toxicity by complete blood count (CBC) panel and H&E histopathology of liver, heart, bone marrow","Toxicity in mice; mice, 100 mg/kg Compound 6.11 daily for 30 days",no toxicity
same,toxicities,"Toxicity in mice; mice, daily dosing up to 100 mg/kg, preliminary studies",no significant toxicities
same,"toxicity by CBC chemistry and histology of liver, heart, bone marrow","Toxicity in mice; nude mice, PO 100 mg/kg 1×/day 7-days/week, alone or combined with irinotecan",no toxicity
same,amounts of γ-H2AX and 53BP1,[1],overall decreases in the amounts of γ-H2AX and 53BP1
same,"mean synergy score (Bliss), DNA damage",[2]; combined with 5FU,23
same,"mean synergy score (Bliss), DNA damage",[2]; combined with SN38,24
same,DNA damage (γ-H2AX) compared to vehicle,[2]; single agent,no significant DNA damage
same,CHD1L-mediated TCF-transcription and CSC stemness,[3],dose dependent inhibition
O=C(c1cc(Cc2n[nH]c(=O)c3ccccc23)ccc1F)N1CCN(C(=O)C2CC2)CC1 [olaparib],IC50,"HCT116 tumor organoids; combined with Compound 6, read-out: IC50 olaparib",~30 µM
same,IC50,HCT116 tumor organoids; olaparib alone,~600 µM
